“Also recorded” adds a separate entry of the source.
Tests used:
[1] = test system: ANA; assay: Serologic detection of ANA by immunofluorescence on HEp-2 cell sheets, serum of UV + LPS lupus model mice; type: in vivo, BALB/c mice; design: key: (+): positive; (−): negative; (++++): intenseintensity; (+++): stronger fluorescent intensity; conditions: day 14; positive controls (artesunate 2 mg/kg*d, prednisone 1 mg/kg*d) by stomach perfusion
Experimental: (§1) The back of mice was shaved and acutely exposed to Ultraviolet of 2 h/d*3 d, with a distance of 30 cm. After exposure to UV, 2.5 mg/kg of LPS was administrated once by ip, and after 24 h, the model was successfully established; the mice in the normal control group received normal saline via ip. 24 h after injection of LPS (ip), medicines were given to the model mice by intragastric administration. Chlorogenic acid test groups received high, middle, and low doses of medicines, by intragastric administration at a respective dosage of 10 mg/kg*d, 20 mg/kg*d, and 40 mg/kg*d. The positive control group A received 2 mg/kg*d of artesunate by stomach perfusion, while the positive control group B received 1 mg/kg*d of prednisone by stomach perfusion. Mice in the model and normal control group all received 0.4 ml/mouse normal saline by gavage. After 15 days of administration, animals in each group were taken blood by separating eyeballs on days 14, 21, 28, and after cultured in water bath at 37° C. for 1 h, the blood sample was centrifugated at 2000 r/min for 5 min, to draw serum for use. On day 21, after blood collection, animals were sacrificed by dislocation, followed by collection of liver and kidney, and they were placed in fixative solutions of electron microscope and light microscrope, respectively. Serum of mice was diluted at 1:100 with special buffer solution of Shenzhen Hengjia, and then 200 μL of diluted serum was respectively added to the reactive tank with corresponding number, cultured in the incubator at 37° C. for 30 min, and washed with the buffer solution four times, 2 min for each time; 200 μL of diluted biotin goat anti-mouse IgG (1:100) was added, cultured in the incubator at 37° C. for 30 min, and then washed with the buffer solution four times, 2 min for each time; 100 μL of diluted HRP-avidin (1:100) was added, cultured in the incubator at 37° C. for 30 min, and then washed as mentioned-above; reactive solutions A and B were added till appearance of positive bands, then washed with the buffer solution. Compared with the standard bands of ENA polypeptide antibody spectrum in the same kit, if the positive bands appeared at 28/29,13.5 ku polypeptide; 15,16.5,38 kupolypeptide; 52 kupolypeptide and 47/48,45 kupolypeptide, that can be determined as anti-Sm, anti-Rib, anti-ssA, and anti-ssB positive antibody. Serum was diluted with PBS at 1:40, then 20-30 μL of diluted serum was dropped into the scrobiculus of HEp-2 cell sheets, each cell sheet for each group. In the process of dropping serum, it should be noted that the surface of cell sheet can not be touched. After addition of serum, cell sheet was placed in wet box and kept for 30 min at room temperature (25° C.). After 30 min, the cell sheet was taken out, and serum was carefully washed out with PBS, then carefully washed twice with PBS, 5 min for each time; after washing, the remained PBS was removed by special absorbent paper of […] company (In this process, it should be noted that becoming dry of cell substrates will affect the results). 20-30 μL of diluted (PBS, 1:100) FITC goat anti-mouse IgG was added by dropping, and then incubated in wet box at room temperature for 30 min. After washing with PBS, steps were same to above. The remained PBS was removed by absorbent paper, and 1-2 drops of fluorescent mounting media were added to the cell sheet. The cover glass was mounted, observed under Olympus BH-2 universal microscope, and then photographed.

[2] = test system: ANA; assay: as above; type: in vivo, BALB/c mice; design: key: (+): positive; (−): negative; (++++): intense fluorescence; (+++): stronger fluorescence; (++): weeker fluorescence; conditions: positive controls (artesunate 2 mg/kg*d, prednisone 1 mg/kg*d) by stomach perfusion
Experimental: as §1

[3] = test system: ENA polypeptide antibodies (anti-Sm, anti-Rib, anti-ssA, anti-ssB); assay: Serologic detection of ENA polypeptide antibodies by immunoblotting in serum of UV + LPS lupus model mice; type: in vivo, BALB/c mice; design: key to Anti-Rib: (+): positive; (−): negative; key to Anti-Sm / Anti-ssA / Anti-ssB: (+): positive; (−): negative; (++++): intenseintensity; (+++): stronger fluorescent intensity; conditions: for Anti-Rib / Anti-Sm / Anti-ssA / Anti-ssB: positive controls (artesunate 2 mg/kg*d, prednisone 1 mg/kg*d) by stomach perfusion; for ENA polypeptide antibodies found positive (FIG. 1): treated 14 days, positive controls (artesunate, prednisone)
Experimental: as §1

[4] = test system: lupus erythematosus model mice (kidney, liver); assay: Triple staining (silver staining) of kidney and liver sections under light microscope, lupus model mice; type: in vivo, BALB/c mice; conditions: positive controls (artesunate, prednisone); for basilar membrane of renal glomerulus and tubule, pathological section: 21 days; for glomerular basement membrane thickness compared with the normal mice (FIG. 9, FIG. 10): 28 days, ×50
Experimental: (§2) The back of mice was shaved and acutely exposed to Ultraviolet of 2 h/d*3 d, with a distance of 30 cm. After exposure to UV, 2.5 mg/kg of LPS was administrated once by ip, and after 24 h, the model was successfully established; the mice in the normal control group received normal saline via ip. 24 h after injection of LPS (ip), medicines were given to the model mice by intragastric administration. Chlorogenic acid test groups received high, middle, and low doses of medicines, by intragastric administration at a respective dosage of 10 mg/kg*d, 20 mg/kg*d, and 40 mg/kg*d. The positive control group A received 2 mg/kg*d of artesunate by stomach perfusion, while the positive control group B received 1 mg/kg*d of prednisone by stomach perfusion. Mice in the model and normal control group all received 0.4 ml/mouse normal saline by gavage. After 15 days of administration, animals in each group were taken blood by separating eyeballs on days 14, 21, 28, and after cultured in water bath at 37° C. for 1 h, the blood sample was centrifugated at 2000 r/min for 5 min, to draw serum for use. On day 21, after blood collection, animals were sacrificed by dislocation, followed by collection of liver and kidney, and they were placed in fixative solutions of electron microscope and light microscrope, respectively.
[…] The thickness of slice is 3 μm, and at beginning of staining, wax was routinely deprived to water. After oxidation with 0.5% periodic acid, the slice was macerated in hexamine silver fluid for about 2 h (constant temperature 58° C.), washed with distilled water, dyed with hematoxylin for 1 min. After washing with water, the slice was dyed by dropping the ponceau staining solution for 5 min, differentiated with 70% ethanol, dehydrated with gradient ethanol, cleared with xylene, and sealed with neutral gum.

[5] = test system: ANA; assay: Serologic detection of ANA by immunofluorescence on HEp-2 cell sheets, serum of UV + LPS lupus model mice; type: in vivo, BALB/c mice; conditions: artesunate, 28 days, ×200
Experimental: The back of mice was shaved and acutely exposed to Ultraviolet of 2 h/d*3 d, with a distance of 30 cm. After exposure to UV, 2.5 mg/kg of LPS was administrated once by ip, and after 24 h, the model was successfully established; the mice in the normal control group received normal saline via ip. 24 h after injection of LPS (ip), medicines were given to the model mice by intragastric administration. Chlorogenic acid test groups received high, middle, and low doses of medicines, by intragastric administration at a respective dosage of 10 mg/kg*d, 20 mg/kg*d, and 40 mg/kg*d. The positive control group A received 2 mg/kg*d of artesunate by stomach perfusion, while the positive control group B received 1 mg/kg*d of prednisone by stomach perfusion. Mice in the model and normal control group all received 0.4 ml/mouse normal saline by gavage. After 15 days of administration, animals in each group were taken blood by separating eyeballs on days 14, 21, 28, and after cultured in water bath at 37° C. for 1 h, the blood sample was centrifugated at 2000 r/min for 5 min, to draw serum for use. On day 21, after blood collection, animals were sacrificed by dislocation, followed by collection of liver and kidney, and they were placed in fixative solutions of electron microscope and light microscrope, respectively. Serum of mice was diluted at 1:100 with special buffer solution of Shenzhen Hengjia, and then 200 μL of diluted serum was respectively added to the reactive tank with corresponding number, cultured in the incubator at 37° C. for 30 min, and washed with the buffer solution four times, 2 min for each time; 200 μL of diluted biotin goat anti-mouse IgG (1:100) was added, cultured in the incubator at 37° C. for 30 min, and then washed with the buffer solution four times, 2 min for each time; 100 μL of diluted HRP-avidin (1:100) was added, cultured in the incubator at 37° C. for 30 min, and then washed as mentioned-above; reactive solutions A and B were added till appearance of positive bands, then washed with the buffer solution. Compared with the standard bands of ENA polypeptide antibody spectrum in the same kit, if the positive bands appeared at 28/29,13.5 ku polypeptide; 15,16.5,38 kupolypeptide; 52 kupolypeptide and 47/48,45 kupolypeptide, that can be determined as anti-Sm, anti-Rib, anti-ssA, and anti-ssB positive antibody. Serum was diluted with PBS at 1:40, then 20-30 μL of diluted serum was dropped into the scrobiculus of HEp-2 cell sheets, each cell sheet for each group. In the process of dropping serum, it should be noted that the surface of cell sheet can not be touched. After addition of serum, cell sheet was placed in wet box and kept for 30 min at room temperature (25° C.). […]

[6] = test system: lupus erythematosus model mice (renal glomerular capsule wall epithelial cells); assay: Electron microscope observation of kidney samples, lupus model mice; type: in vivo, BALB/c mice; conditions: positive controls (artesunate, prednisone), 21 days; compared with the model group
Experimental: as §2, with “respectively. On day 21, the sample used for observation under electron microscope was fixed in mixed stationary solution of 2% paraformaldehyde+0.25% glutaral for 4 h, rinsed with TBS, treated with 1% osmic acid, followed by fixation for 1 h, rinsed with buffer solution, dehydrated with acetone, dyed with uranyl acetate for 2 h, macerated in Epon812 and embedded, and cut into slices with LEICA ultramicrotome. The slices were stained with lead solution, and the sample was observed under transmission electron microscope when it was dry.” for “respectively.”

[7] = test system: lupus erythematosus; assay: Screening medicines for treatment of lupus erythematosus; conditions: screening of extracts and potency constituents; no method given

C[C@H]1[C@H](OC(=O)CCC(=O)O)O[C@@H]2O[C@@]3(C)CC[C@H]4[C@H](C)CC[C@@H]1[C@@]24OO3 [Artesunate, artesunate, reference compound]
ANA [1]: (++++)
ANA ([2]; day 21): (+++)
ANA ([2]; day 28): (+++)
Anti-Rib ([3]; day 14): (+)
Anti-Sm ([3]; day 14): (+)
Anti-ssA ([3]; day 14): (+)
Anti-ssB ([3]; day 14): (+)
Anti-Rib ([3]; day 21): (+)
Anti-Sm ([3]; day 21): (+)
Anti-ssA ([3]; day 21): (+)
Anti-ssB ([3]; day 21): (+)
Anti-Rib ([3]; day 28): (−)
Anti-Sm ([3]; day 28): (+)
Anti-ssA ([3]; day 28): (+)
Anti-ssB ([3]; day 28): (+)
ENA polypeptide antibodies found positive (FIG. 1) [3]: anti-Sm, anti-ssA and anti-ssB bodies are positive
basilar membrane of renal glomerulus and tubule, pathological section [4]: increased thickness compared with the normal mice
glomerular basement membrane thickness compared with the normal mice (FIG. 9, FIG. 10) [4]: increased thickness
fluorescence intensity of ANA (FIG. 5) [5]: doesn't decrease
proliferative degree of renal glomerular capsule wall epithelial cells [6]: slightly relieves; also recorded: somewhat relieved

C[C@]12C=CC(=O)C=C1CC[C@@H]1[C@@H]2C(=O)C[C@@]2(C)[C@H]1CC[C@]2(O)C(=O)CO [Prednisone, prednisone, reference compound]
ANA [1]: (++++)
ANA ([2]; day 21): (+++)
ANA ([2]; day 28): (+++)
Anti-Rib ([3]; day 14): (+)
Anti-Sm ([3]; day 14): (+)
Anti-ssA ([3]; day 14): (+)
Anti-ssB ([3]; day 14): (+)
Anti-Rib ([3]; day 21): (+)
Anti-Sm ([3]; day 21): (+)
Anti-ssA ([3]; day 21): (+)
Anti-ssB ([3]; day 21): (+)
Anti-Rib ([3]; day 28): (+)
Anti-Sm ([3]; day 28): (+)
Anti-ssA ([3]; day 28): (+)
Anti-ssB ([3]; day 28): (+)
ENA polypeptide antibodies found positive (FIG. 1) [3]: anti-Sm, anti-ssA and anti-ssB bodies are positive
basilar membrane of renal glomerulus and tubule, pathological section [4]: increased thickness compared with the normal mice
glomerular basement membrane thickness compared with the normal mice (FIG. 9, FIG. 10) [4]: obviously increased thickness
proliferative degree of renal glomerular capsule wall epithelial cells [6]: slightly relieves; also recorded: somewhat relieved

OCC1=C[C@@H](O)[C@@H]2C=CO[C@@H](O[C@@H]3O[C@H](CO)[C@@H](O)[C@H](O)[C@H]3O)[C@H]12 [aucubin]
inhibition on lupus erythematosus [7]: relatively obvious inhibition

O=C(O)C1=CO[C@@H](O[C@@H]2O[C@H](CO)[C@@H](O)[C@H](O)[C@H]2O)[C@@H]2C(CO)=CC[C@H]12 [geniposidic acid]
inhibition on lupus erythematosus [7]: relatively obvious inhibition

Source: patent publication US10058525B2, “Application of chlorogenic acid in preparing medicines for treating lupus erythematosus” (SICHUAN JIUZHANG BIOLOGICAL SCIENCE AND TECHNOLOGY CO., LTD., priority 2015, dated 2018)
